Reference: ChEMBL document CHEMBL1201862, “PubChem BioAssay data set” (2004)
Activity calls are given as the source filed them.

Key:
[1] = target: Cytochrome P450 2C19 (Homo sapiens, UniProt P33261); assay: Cytochrome panel assay with activity outcomes. Panel member name: p450-cyp2c19 Compounds with AC50 equal or less than 10 uM are considered active; format: functional
[2] = target: T1, Heat shock factor protein 1 (Mus musculus, UniProt P38532); assay: decrease of HSF1-responsive luciferase luminescence – cell-based, NIH3T3, dose retest, confirmation (AID 2382); format: functional;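 also: NIH3T3 fibroblasts with HSF1-driven luciferase reporter stressed by proteasome inhibitor MG132; luminescence from HSF1-driven luciferase expression after 8 hours of MG132 stress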
T1 sequence (P38532 whole entry): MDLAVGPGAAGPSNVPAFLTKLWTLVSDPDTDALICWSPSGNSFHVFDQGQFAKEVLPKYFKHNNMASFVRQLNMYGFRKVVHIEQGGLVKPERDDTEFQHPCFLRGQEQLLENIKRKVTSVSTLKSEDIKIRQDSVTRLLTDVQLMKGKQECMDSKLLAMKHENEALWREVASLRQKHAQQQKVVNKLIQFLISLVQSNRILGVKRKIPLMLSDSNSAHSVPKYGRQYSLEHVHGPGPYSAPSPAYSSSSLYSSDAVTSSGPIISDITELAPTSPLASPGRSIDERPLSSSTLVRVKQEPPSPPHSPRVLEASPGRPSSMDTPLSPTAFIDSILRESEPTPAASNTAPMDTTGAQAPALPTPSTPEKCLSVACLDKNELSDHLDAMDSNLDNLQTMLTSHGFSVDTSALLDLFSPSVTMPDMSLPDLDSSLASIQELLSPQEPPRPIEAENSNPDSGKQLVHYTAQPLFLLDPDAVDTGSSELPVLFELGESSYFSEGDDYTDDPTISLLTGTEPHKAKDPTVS

[3] = target: Cytochrome P450 2C9 (Homo sapiens, UniProt P11712)
Sequence of Cytochrome P450 2C9 (P11712 whole entry): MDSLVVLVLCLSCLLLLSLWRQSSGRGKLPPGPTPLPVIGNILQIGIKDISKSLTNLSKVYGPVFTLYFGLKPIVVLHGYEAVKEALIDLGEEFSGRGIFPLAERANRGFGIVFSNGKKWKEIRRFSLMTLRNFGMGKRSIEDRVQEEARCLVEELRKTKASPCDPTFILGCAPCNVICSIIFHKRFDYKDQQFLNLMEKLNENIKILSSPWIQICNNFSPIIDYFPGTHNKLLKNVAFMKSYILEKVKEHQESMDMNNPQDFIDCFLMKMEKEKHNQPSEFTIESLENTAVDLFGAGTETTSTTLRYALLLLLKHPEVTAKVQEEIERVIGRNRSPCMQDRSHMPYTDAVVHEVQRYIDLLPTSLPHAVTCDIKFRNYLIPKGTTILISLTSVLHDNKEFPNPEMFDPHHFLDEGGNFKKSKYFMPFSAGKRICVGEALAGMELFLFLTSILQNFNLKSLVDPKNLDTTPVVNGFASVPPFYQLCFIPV

[4] = target: Cytochrome P450 3A4 (Homo sapiens, UniProt P08684);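 also: CYP3A4 tested as one member of a cytochrome P450 panel screen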
Sequence of Cytochrome P450 3A4 (P08684 whole entry): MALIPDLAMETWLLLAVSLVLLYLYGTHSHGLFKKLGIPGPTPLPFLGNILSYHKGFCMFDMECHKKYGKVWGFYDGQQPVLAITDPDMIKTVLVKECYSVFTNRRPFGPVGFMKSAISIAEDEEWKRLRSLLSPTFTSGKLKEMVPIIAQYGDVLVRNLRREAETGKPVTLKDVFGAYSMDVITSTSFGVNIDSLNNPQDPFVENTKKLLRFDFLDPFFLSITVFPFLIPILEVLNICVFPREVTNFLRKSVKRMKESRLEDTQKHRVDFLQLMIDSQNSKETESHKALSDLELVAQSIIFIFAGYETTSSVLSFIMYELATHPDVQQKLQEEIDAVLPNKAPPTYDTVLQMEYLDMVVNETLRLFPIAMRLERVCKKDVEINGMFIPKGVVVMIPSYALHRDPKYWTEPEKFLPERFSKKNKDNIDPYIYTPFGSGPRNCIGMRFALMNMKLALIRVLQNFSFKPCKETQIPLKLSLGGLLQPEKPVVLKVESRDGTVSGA

[5] = target: Cytochrome P450 2D6 (Homo sapiens, UniProt P10635);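 also: CYP2D6 member of a cytochrome P450 panel assay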
Sequence of Cytochrome P450 2D6 (P10635 whole entry): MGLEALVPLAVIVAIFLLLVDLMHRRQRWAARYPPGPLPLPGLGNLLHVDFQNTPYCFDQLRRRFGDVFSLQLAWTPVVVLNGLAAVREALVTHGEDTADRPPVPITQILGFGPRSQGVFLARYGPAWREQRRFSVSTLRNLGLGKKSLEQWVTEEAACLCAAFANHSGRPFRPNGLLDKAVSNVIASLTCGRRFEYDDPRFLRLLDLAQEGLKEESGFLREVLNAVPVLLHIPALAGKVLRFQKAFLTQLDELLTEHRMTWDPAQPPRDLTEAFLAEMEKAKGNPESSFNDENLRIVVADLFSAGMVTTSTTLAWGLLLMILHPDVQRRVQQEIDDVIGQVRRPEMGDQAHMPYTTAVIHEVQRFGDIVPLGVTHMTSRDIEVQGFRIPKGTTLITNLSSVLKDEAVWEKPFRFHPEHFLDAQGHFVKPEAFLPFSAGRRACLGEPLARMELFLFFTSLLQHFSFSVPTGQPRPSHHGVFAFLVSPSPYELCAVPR

[6] = Luminescence Cell-Based Dose Retest to Confirm Inhibitors of Cancer Stem Cells. [Related pubchem assays (depositor defined):AID2717, AID2721]; format: functional; settings: Homo sapiens
[7] = Trypanosoma cruzi growth suppression in host cells – NIH3T3 host cells, beta-gal luminescence, confirmation (AID 2044); format: functional, cell-based;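 also: intracellular parasites grown in NIH/3T3 mouse fibroblasts as host cells; luminescent beta-galactosidase reporter signal from transgenic T. cruzi replicating inside host cells; inhibitors lower the luminescence signal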
[8] = NIH3T3 cell viability loss – ATP luminescence, mouse fibroblasts, counter-screen, dose response (AID 2010); format: functional, cell-based;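 also: cells exposed to compound for about 90 hours before reading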

Sequence of Cytochrome P450 2C19 (P33261 whole entry): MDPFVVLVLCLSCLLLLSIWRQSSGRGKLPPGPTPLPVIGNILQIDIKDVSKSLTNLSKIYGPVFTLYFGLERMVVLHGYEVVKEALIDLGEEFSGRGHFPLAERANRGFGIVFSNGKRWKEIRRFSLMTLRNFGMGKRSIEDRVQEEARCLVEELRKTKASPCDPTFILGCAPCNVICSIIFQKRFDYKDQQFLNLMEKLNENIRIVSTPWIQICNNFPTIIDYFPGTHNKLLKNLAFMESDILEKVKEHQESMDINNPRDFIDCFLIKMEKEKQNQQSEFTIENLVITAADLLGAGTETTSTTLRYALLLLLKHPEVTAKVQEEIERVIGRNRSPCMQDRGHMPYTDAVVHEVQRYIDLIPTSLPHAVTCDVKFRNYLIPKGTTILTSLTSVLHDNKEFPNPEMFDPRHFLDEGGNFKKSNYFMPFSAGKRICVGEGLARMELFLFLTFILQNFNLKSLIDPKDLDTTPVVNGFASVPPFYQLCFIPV

CCOc1ccc(-c2nnc3ccc(SC)nn23)cc1
AC50 ([1]; read-out: AC50): 7.94 µM (inconclusive)

Cc1cc(Cl)ccc1OCC(=O)Nc1nc(-c2cccnc2)cs1
EC50 [2]: > 195 µM (not active)

CC(=O)CC(=O)Nc1ccc2ccccc2c1
AC50 [1]: inconclusive

Cc1cc(N2CCOCC2)ncc1[N+](=O)[O-]
AC50 [3]: 14.1 µM (inconclusive)

Cc1ccc(C(=O)Nc2ccc(C(=O)/C=C/c3cccs3)cc2)cc1
AC50 ([1]; read-out: AC50): 7.08 µM (inconclusive) | AC50 [4]: 5.01 µM (inconclusive) | AC50 [3]: 11.2 µM (inconclusive)

CCc1c(C)c(C#N)c2nc3ccccc3n2c1Nc1c(C)n(C)n(-c2ccccc2)c1=O
AC50 ([1]; read-out: AC50): 25.1 µM (inconclusive) | AC50 [3]: 5.01 µM (inconclusive)

Cc1cccn2c(=O)c3cc(C(=O)N4COCC4(C)C)n(C)c3nc12
AC50 ([1]; read-out: AC50): 4.47 µM (inconclusive)

O=C(Cn1c(-c2cscn2)nc2ccccc21)Nc1cc(F)ccc1F
AC50 [5]: 22.4 µM (inconclusive)

CN1CC[C@@]2(CCCN(C(=O)c3cc(C(F)(F)F)cc(C(F)(F)F)c3)C2)C1
AC50 [4]: 25.1 µM (inconclusive)

CCC1=NN(C(=O)c2ccc(Cl)cc2)C(O)(c2ccc(C)cc2)C1 (stereo not given)
AC50 [6]: 4.64 µM (active)

COc1ccc(-n2c(-c3ccccc3)nc(=S)c3c2CCCC3)cc1
AC50 [4]: 20 µM (inconclusive)

O=C(COC(=O)c1cccnc1Cl)c1ccccc1
AC50 ([1]; read-out: AC50): 39.8 µM (inconclusive) | AC50 [3]: 17.8 µM (inconclusive)

CS(=O)(=O)N1CCN(c2cccc(Cl)n2)CC1
EC50 [2]: > 195 µM (not active)

C=CCC(C(=O)OC)(C(=O)OC)c1ccc([N+](=O)[O-])cn1
AC50 ([1]; read-out: AC50): 14.1 µM (inconclusive)

COc1ccc(OC)c(-c2csc(N(CC3CCCO3)C(=O)C3CCCCC3)n2)c1 (stereo not given)
AC50 [6]: 3.5 µM (active)

N=C(N)N[C@H](CCC(=O)O)C(=O)O
AC50 [4]: 3.16 µM (inconclusive)

Cc1cccc(CNc2nc(-c3ccc4c(c3)OCO4)nc3ccccc23)c1
AC50 [3]: 1 µM (inconclusive)

Cc1cccc(N(C(=O)C(F)(F)F)C(C(=O)NC2CCCCC2)c2cccs2)c1 (stereo not given)
EC50 [7]: 3.39 µM (active) | EC50 [8]: > 60 µM (not active)

CC(=O)Nc1ccccc1C(=O)OCC(=O)c1ccc2ccccc2c1
AC50 ([1]; read-out: AC50): 1.26 µM (inconclusive)

CC(=O)Nc1ccc2c(c1)/C(=N/c1ccc(C(=O)O)cc1)c1ccccc1-2
AC50 [4]: 3.98 µM (inconclusive)

CCc1ccc(NC(=O)C2CCC(CNC(=O)[C@@H]3Cc4ccccc4CN3)CC2)cc1 (stereo not given in full)
EC50 [2]: > 195 µM (not active)

COC(=O)[C@H]1C[C@@H]1[C@H](NC(=O)c1cc(C)on1)c1ccccc1
AC50 [4]: 15.8 µM (inconclusive) | AC50 [3]: 31.6 µM (inconclusive)

c1cncc(CNc2nc(-c3ccoc3)nc3ccccc23)c1
AC50 ([1]; read-out: AC50): 20 µM (inconclusive)

COc1ccc2c(c1)C=C(CN1CCN(C3CCCC3)C(CCO)C1)CO2 (stereo not given)
EC50 [7]: 1.75 µM (active) | EC50 [8]: > 60 µM (not active)

O=C(c1csnn1)N1CCC[C@@]2(CCN(Cc3nccs3)C2)C1
AC50 ([1]; read-out: AC50): 25.1 µM (inconclusive)

COc1cccc(CN(C)CC2CCCN(CCc3ccc(Cl)cc3)C2)c1OC (stereo not given)
EC50 [2]: > 195 µM (not active)

CN=C(S)N(CCc1c(C)[nH]c2ccc(Cl)cc12)Cc1cccs1
EC50 [7]: 2.28 µM (active) | EC50 [8]: > 30 µM (not active)

N#Cc1cc(-c2ccc(Cl)cc2)cnc1Sc1ccccc1
EC50 [7]: 3.77 µM (active) | EC50 [8]: > 60 µM (not active)

CCSc1nnc(NC(=O)Cc2ccc(OC)c(OC)c2)s1
AC50 ([1]; read-out: AC50): 28.2 µM (inconclusive) | AC50 [3]: 2.82 µM (inconclusive)

CC(C)(C)c1ccc(C(=O)Nc2cccc3c(=O)[nH][nH]c(=O)c23)cc1
EC50 [2]: 3.66 µM (active)

Cc1ccc(C)c(N2CN(Cc3cccnc3)CN=C2S)c1
EC50 [7]: 0.726 µM (active) | EC50 [8]: > 60 µM (inconclusive)

Cc1cc(C(=O)Nc2nc3c(s2)CCCC3)cs1
AC50 [6]: 1.97 µM (active)

NC(=O)c1cc2ccncc2c2ccccc12
EC50 [2]: 4.29 µM (active)

Cc1ccccc1-c1cncnc1Nc1ccccc1
AC50 [5]: 39.8 µM (inconclusive)

C[C@@]12CCC(=O)C=C1CC[C@H]1[C@@H]2[C@@H](O)C[C@]2(C)[C@@H]1CC[C@@]2(O)C(=O)COC(=O)C1CCCC1
AC50 [4]: 5.01 µM (inconclusive)

COC(=O)[C@@]1(Cc2ccc(OC)cc2)[C@H]2c3cc(C(=O)N4CCCC4)n(Cc4cc(F)c(F)c(F)c4)c3C[C@H]2CN1C(=O)c1ccccc1
AC50 ([1]; read-out: AC50): 1.58 µM (inconclusive)

CCOc1ccc(CCNC(=O)c2nn(C)c3c2CS(=O)(=O)c2ccccc2-3)cc1
EC50 [2]: > 195 µM (not active)

Cn1c(=N)n(CC(O)c2ccccc2)c2ccccc21 (stereo not given)
EC50 [2]: > 195 µM (not active)

CCn1cc(S(=O)(=O)Nc2ccc3c(c2)OCCO3)cn1
EC50 [2]: 1.86 µM (active)

CCCNC(=O)c1cccc(COCC(F)(F)F)c1
EC50 [2]: > 195 µM (not active)

COc1ccccc1-c1cncnc1NCCNC(C)=O
AC50 ([1]; read-out: AC50): 39.8 µM (inconclusive)

CCOC(=O)N1CCC(NC(=O)CCC(=O)N2CCOc3ccccc32)CC1
AC50 ([1]; read-out: AC50): 14.1 µM (inconclusive) | AC50 [4]: 10 µM (inconclusive)

COc1ccc(CN2CCN(Cc3csc(C(C)=O)c3)CC2CCO)c(C)c1C (stereo not given)
EC50 [7]: 0.284 µM (active) | EC50 [8]: > 60 µM (not active)

Cc1ccc(C(=O)N(CCCN(C)C)c2nc3ccc(Cl)cc3s2)cc1C
EC50 [7]: 0.216 µM (active) | EC50 [8]: > 60 µM (inconclusive)

O=S(=O)(NCC(c1cccnc1)N1CCN(Cc2ccccc2)CC1)c1ccc(Cl)cc1 (stereo not given)
EC50 [7]: 0.641 µM (active) | EC50 [8]: > 60 µM (not active)

COCCn1c(=O)[nH]c2cc(C(=O)N3CCN(c4ccccc4OC)CC3)ccc2c1=O
AC50 ([1]; read-out: AC50): 6.31 µM (inconclusive) | AC50 [4]: 14.1 µM (inconclusive)

COC(=O)C/C=C\[C@@H](C)[C@@H](/C=N\OC[C@@H](C)[C@H](OCc1ccccc1)C(C)C)OC
AC50 ([1]; read-out: AC50): 2 µM (inconclusive) | AC50 [4]: 3.16 µM (inconclusive) | AC50 [3]: 3.16 µM (inconclusive)

CN1CCN(c2ccc(S(=O)(=O)N3CCOCC3)cc2NC(=O)CCc2ccccc2)CC1
EC50 [7]: 1.58 µM (active) | EC50 [8]: > 30 µM (not active)

Cc1nn(-c2ccccc2)c2nc(N)c(C#N)c(-c3ccc(C(C)(C)C)cc3)c12
AC50 [6]: 2.14 µM (active)

N#Cc1ccccc1-c1ccc2ncnc(NCc3cccs3)c2c1
AC50 ([1]; read-out: AC50): 39.8 µM (inconclusive) | AC50 [3]: 1 µM (inconclusive)

O=C(Oc1ccccc1)N1CCC2(CCCN(c3ccccc3)C2)CC1
AC50 [4]: 31.6 µM (inconclusive) | AC50 [3]: 12.6 µM (inconclusive)

COc1ccc(/C=C/C(=O)OCCCN(C)C)cc1
EC50 [7]: 0.237 µM (active) | EC50 [8]: > 60 µM (not active)

COc1cc(NC(=O)N[C@@H](Cc2c[nH]c3ccccc23)C(=O)O)c(C(=O)O)cc1OC
EC50 [2]: > 195 µM (not active)

CCC(=O)N1CCc2cc(S(=O)(=O)NC(C(=O)NCc3ccc(C)cc3)C(C)C)ccc21 (stereo not given)
EC50 [2]: > 195 µM (not active)

CC1(C)C[C@H](O)[C@]2(CO)[C@H](O)C[C@]3(C)C(=CCC4[C@@]5(C)CC[C@H](O)C(C)(C)C5CC[C@]43C)[C@@H]2C1 (stereo not given in full)
AC50 [6]: 1.97 µM (active)

Cc1ccc(-c2csc(NCCn3c(-c4ccncc4)nc4cc(C(F)(F)F)ccc43)n2)cc1
AC50 [6]: 8 µM (active)

CCOC(=O)c1c(C)nc2c(c1-c1ccccc1)C(=O)CC(C)(C)C2
AC50 [3]: 15.8 µM (inconclusive)

CC(=O)OC1N=C(c2ccccc2)c2cc(Br)ccc2N(C)C1=O (stereo not given)
AC50 ([1]; read-out: AC50): 39.8 µM (inconclusive) | AC50 [3]: 17.8 µM (inconclusive)

CC(C)(C)C(=O)N1CCC(O)(CS(=O)(=O)Cc2ccc(Cl)cc2)CC1
AC50 [4]: 20 µM (inconclusive)

COc1ccc(CC2SC(N/N=C/c3ccccc3O)=NC2=O)cc1 (stereo not given)
AC50 [6]: 8.79 µM (active)

C/C(=N\NC(=O)c1c(C)nc2ccccn12)c1ccc(C(C)(C)C)cc1
EC50 [2]: > 195 µM (not active)

COc1cc(C(=O)N/N=C(\Cc2ncc[nH]2)c2ccccc2)cc(OC)c1OC
AC50 [6]: 2.89 µM (active)

CCc1nnc(N/N=C\c2ccc(OC(C)=O)c(OC)c2)n1N
EC50 [2]: > 195 µM (not active)

C/C(=N\N(Cc1ccccc1)c1ccccc1)c1cccnc1
EC50 [7]: 3.78 µM (active) | EC50 [8]: > 60 µM (not active)

Cc1ccc(-c2nnc(S)n2/N=C/c2cccn2C)cc1
AC50 [5]: 5.01 µM (inconclusive)

CCN1C(=O)/C(=C\c2ccncc2)S/C1=N\c1ccc(C)c(C)c1
AC50 [6]: 3.77 µM (active)

Cc1cc(C)c(S(=O)(=O)N/N=C/c2ccc3c(c2)OCO3)c(C)c1
EC50 [2]: > 195 µM (not active)

Cc1[nH]n(-c2ccccc2)c(=O)c1/N=N/c1cccc([N+](=O)[O-])c1
EC50 [7]: > 30 µM (not active) | EC50 [8]: > 60 µM (not active)

O=C1C=CC(=O)c2c1ccc1c2ccc2ccccc21
AC50 [5]: 5.01 µM (inconclusive)

CC1=C(CC(=O)O)c2cc(F)ccc2/C1=C\c1ccc(S(C)(=O)=O)cc1 [EXISULIND]
AC50 [1]: inconclusive
